Test results from PMC8044163, “Vitamin D and lumisterol derivatives can act on liver X receptors (LXRs)” (Scientific Reports, 2021).

Experiments:
[1] = test system: LXRα/β binding to the LXRE within the ABCA1 promoter region; test: ChIP assay in HaCaT keratinocytes; format: cell-based, human; conditions: 10^–7 M, 24 h
Text: We followed protocols described in Ref.[40]. […] The cells were harvested and in vivo crosslinking, lysis and sonication of the chromatin, as well as following steps of ChIP assay, were done using Magna ChiP G Kit 0002 (Millipore). […] The purified DNA fragments were PCR amplified with the following sequence of PCR primers for human ABCA1 LXR-responsive element (LXRE): Forward: [NT], Reverse: [NT] and for human GAPDH as a reference gene: Forward: [NT], Reverse: [NT] (Eurofins Genomics). The PCR reaction was performed using Dream Taq Green PCR Master Mix (2×) (Thermo Scientific, cat. no. K1081) according to the following procedure: initial denaturation: 95 °C for 3 min; denaturation: 95 °C for 30 s (× 35 cycles); annealing: 58 °C for 30 s (× 35 cycles in the same cycles with denaturation); extension: 72 °C for 1 min; final extension: 72 °C for 15 min. The detection of amplification product was done by standard agarose gel electrophoresis with EtBr using Invitrogen iBright CL1000 Imaging System, with # SM Gene Ruler 1 kb Plus DNA Ladder (Thermo Scientific) as a marker.

brains of SKH-1 mice = test: LXR-dependent gene expression in brain of mice after subcutaneous injection; format: in vivo, mouse; conditions: 6 h, SKH-1-M mice
Method: Adult hairless mice SKH-1 (Male, 16 weeks old) and Ptch^+/−/SKH-1 (Male, 18 weeks old) were injected subcutaneously with 20 µg and 10 µg/kg of 20(OH)D3, respectively, dissolved in ethanol, further diluted in propylene glycol (PG) and saline (0.9%) sequentially (1:19:80, v/v/v). Controls were injected with the vehicle without the drug. )After 6 h the animals were killed by halothane followed by cervical dislocation and brains were collected for RNA and protein extraction protocols. The procedures followed the guidelines and approvals of the Institute Animal Care and Use Committee of the University of Alabama at Birmingham (IACUC).
RNA isolated from either fibroblasts, HaCaT cells or brain was submitted for cDNA synthesis (High Capacity cDNA Reverse Transcription Kit with RNase Inhibitor, Applied Biosystems) following the manufacturers’ protocols. RT-PCR was carried out using Cyber green, in triplicates; as previously described. Approximately, 750 ng of cDNA was used for PCR reactions. GAPDH and CIC-B were used as internal controls. Primer sequences are listed in Supplementary Table 27. Data were analyzed using GraphPad Prism statistical software one way ANOVA or t-test, where appropriate; *p < 0.05; **p < 0.01; ***p < 0.001.

| LXRα/β binding to the LXRE within the ABCA1 promoter region (ChIP) [1] | SMILES | LXR-dependent gene expression in brain (brains of SKH-1 mice; 10 µg/kg) | LXR-dependent gene expression in brain (brains of SKH-1 mice; 20 µg/kg) |
| --- | --- | --- | --- |
| significant stimulation | C=C1/C(=C\C=C2/CCC[C@]3(C)[C@@H]([C@H](C)CCCC(C)(C)O)CC[C@@H]23)C[C@@H](O)C[C@@H]1O [1,25(OH)2D3, reference compound] |  |  |
|  | C=C1CC[C@H](O)C/C1=C/C=C1\CCC[C@@]2(C)[C@H]1CC[C@@H]2[C@@](C)(O)CCCC(C)C [20(OH)D3] | stimulated expression of Abca1, Abcg1, Abcg5, ApoE, Fas and Cyp7a1 | stimulated expression of Lpl, Abca1, ApoE and Cyp7a1 |
